What was measured:
[1] = Phase I Part 1: plasma pharmacokinetics after single oral dose; type: in vivo, human; conditions: for MRT / AUC0−∞ / Cmax / T1/2: geometric mean
Protocol: To test dose proportionality, PK parameters were analyzed graphically as AUC/dose and Cmax/dose and via a power model (PK parameter=α*dose^β) approach with log-transformed PK parameters as the dependent variable and log-transformed dose as the independent variable.

[2] = tested on: human patients suffering from relapsing multiple sclerosis (RMS); assay: Phase II RMS study: qualified relapse assessment (ARR, relapse-free status); type: in vivo; conditions: for Qualified relapse rate, adjusted / Qualified relapses, number of relapses: 24 weeks; for Proportion relapse-free / Unadjusted ARR: Week 24
Protocol: The assessing Investigator and central MRI reader were treatment blinded.
Subjects were assessed for MS relapse at visits beginning at Week 4. Relapse was also assessed at any Unscheduled Visit for Neurological Worsening and Relapse Assessment. For subjects in the OLE Period, MS relapse was assessed at all visits. A qualifying relapse was defined as new, worsening or recurrent neurological symptoms attributed to MS that last for at least 24 hours without fever or infection, or adverse reaction to prescribed medication, preceded by a stable or improving neurological status of at least 30 days. The relapse must have been accompanied by new clinical signs (i.e., changes in the neurological examination or an increase in EDSS score).
The protocol specified that all cases of potential relapse were to be objectively confirmed by the Investigator regardless of whether they were identified during a scheduled or unscheduled visit. Any assessments needed to confirm the relapse were to be performed, and details of the relapse were to be documented within the relevant section(s) of the eCRF.
Additional Secondary Endpoints
Analysis of secondary endpoints was based on the mITT analysis set. […] Descriptive statistics for ARR were calculated for each treatment group as the total number of qualified relapses divided by the number of subject-years of observation.
Primary and secondary efficacy endpoints were analysed based on the modified intention-to-treat (mITT) analysis set, consisting of all randomized patients with at least one available baseline and one post-baseline MRI assessment. […] For each endpoint, rate ratio (RR; null-hypothesis RR=1.0) adjusted for baseline disease activity was reported together with associated 95% CI and p-value. The T2 lesion endpoint was analysed similarly. Dose-response relationships between evobrutinib treatment dose and primary and key secondary endpoints were assessed for linear and monotonic trend. The analysis of CFB in cube root of volume of T2 lesions at Week 24 was based on a mixed-effect model for repeated measures, with fixed effects for treatment, week of visit, and treatment-by-week interaction, random effect for subject, and adjustment for baseline cube root of lesion volume. CFB in SF-36 score at Week 24 was analysed similarly. Descriptive statistics were used to further describe the study outcomes.

C=CC(=O)N1CCC(CNc2ncnc(N)c2-c2ccc(Oc3ccccc3)cc2)CC1 [Evobrutinib, 1-(4-(((6-amino-5-(4-phenoxyphenyl)pyrimidin-4-yl)amino)methyl)piperidin-1-yl)prop-2-en-1-one]
Time after dosing up to which concentrations above LLOQ were measurable ([1]; 350 and 500 mg, some (n=3) subjects): up to 48 h
Vd/F ([1]; both sexes, human, plasma, oral, all doses, read-out: Relevant Vz/F): ~650 L
MRT ([1]; human, plasma, oral, single dose 25 mg): 1.82 h
MRT ([1]; human, plasma, oral, single dose 50 mg): 1.82 h
MRT ([1]; human, plasma, oral, single dose 100 mg): 1.7 h
MRT ([1]; human, plasma, oral, single dose 200 mg): 1.8 h
MRT ([1]; human, plasma, oral, single dose 350 mg): 2.26 h
MRT ([1]; human, plasma, oral, single dose 500 mg): 2.19 h
PK profile in words (clearance, Vz/f, t1/2) ([1]; humans): moderate-to-high plasma clearance, medium Vz/f, and short t1/2
Apparent clearance (CL/F) ([1]; range across single doses): 2,553-3,995 mL/min
AUC0−∞ ([1]; single dose 25 mg): 104 ng·h/mL
Cmax ([1]; single dose 25 mg): 69.9 ng/mL
T1/2 ([1]; single dose 25 mg): 1.80 h
AUC0−∞ ([1]; single dose 50 mg): 326 ng·h/mL
Cmax ([1]; single dose 50 mg): 234 ng/mL
T1/2 ([1]; single dose 50 mg): 2.06 h
AUC0−∞ ([1]; single dose 100 mg): 434 ng·h/mL
Cmax ([1]; single dose 100 mg): 309 ng/mL
T1/2 ([1]; single dose 100 mg): 2.56 h
AUC0−∞ ([1]; single dose 200 mg): 856 ng·h/mL
Cmax ([1]; single dose 200 mg): 555 ng/mL
T1/2 ([1]; single dose 200 mg): 2.09 h
AUC0−∞ ([1]; single dose 350 mg): 1,910 ng * h/mL
Cmax ([1]; single dose 350 mg): 846 ng/mL
T1/2 ([1]; single dose 350 mg): 6.81 h
AUC0−∞ ([1]; single dose 500 mg): 3,220 ng * h/mL
Cmax ([1]; single dose 500 mg): 1510 ng/mL
T1/2 ([1]; single dose 500 mg): 6.63 h
Apparent geometric mean terminal half-life (t1/2) ([1]; single doses 25-200 mg): 1.8 to 2.6 h
Apparent geometric mean terminal half-life (t1/2) ([1]; single doses 350 and 500 mg): 6.6 to 6.8 h
Plasma concentration remaining after Cmax ([1]; within 8 h, dose-independent): less than 1 % of Cmax
Relevant t1/2 ([1]; within the first 8 h, all doses): ~2 h
Qualified relapse rate, adjusted ([2]; 25 mg QD): 0.47
Qualified relapses, number of relapses ([2]; 25 mg QD): 12 n
Proportion relapse-free ([2]; 25 mg QD): 76.0%
Unadjusted ARR ([2]; 25 mg QD): 0.52
Proportion relapse-free ([2]; 25 mg QD, listed as evobrutinib): 76%
Qualified relapse rate, adjusted ([2]; 75 mg BID): 0.07
Qualified relapses, number of relapses ([2]; 75 mg BID): 2 n
Proportion relapse-free ([2]; 75 mg BID): 86.8%
Unadjusted ARR ([2]; 75 mg BID): 0.08
Proportion relapse-free ([2]; 75 mg BID, listed as evobrutinib): 87%
Qualified relapse rate, adjusted ([2]; 75 mg QD): 0.10
Qualified relapses, number of relapses ([2]; 75 mg QD): 3 n
Proportion relapse-free ([2]; 75 mg QD): 88.2%
Unadjusted ARR ([2]; 75 mg QD): 0.13
Proportion relapse-free ([2]; 75 mg QD, listed as evobrutinib): 88%

Source: patent publication US12251382B2, “Substituted amino-pyrimidine compound for use in a method for treatment and prevention of multiple sclerosis” (Merck Patent GmbH, priority 2018, dated 2025)
